This is an account of results in US20230257429A1, “PEPTIDE ADJUVANT FOR ITS THERAPEUTIC APPLICATIONS IN VIRAL AND TUMOUR VACCINE DEVELOPMENT AND CANCER IMMUNOTHERAPY AND AUTOIMMUNE DISEASE DIAGNOSIS AND TREATMENTS” (National University of Singapore, priority 2020, published 2023).

What all share (format): cell-based, human
The subject of test [1] is dendritic cells (DC). As to the kind of experiment: Dendritic cell penetration, confocal microscopy. The following applies: data not shown.
The subject of test [2] is PBMC. Kind of test: PBMC activation, TNFα and IL-1β ELISA. The following applies: PBMC stimulated 24 hr, TNFα in media. Here is the method: Buffy coat fractions were obtained from healthy blood donors at the Singapore Health Sciences Authority, with Institutional ethics approval, and PBMC were isolated using Ficoll-Paque (GE Healthcare). To isolate monocytes, PBMC were re-suspended to 1×10^7 cells/ml in the RPMI medium contained 5% (v/v) BCS and incubated for 1 hr in T75 flasks (20 ml/flask). Monocytes that adhered were harvested. To culture macrophages and DC [Cao, W., et al., Blood 107: 2777-2785, (2006), incorporated herein by reference], monocytes were resuspended to 1×10^6 cells/ml and cultured in 6-well plates (2 ml/well). Macrophages were cultured by adding M-CSF to 20 ng/ml and DC were cultured with 20 ng/ml GM-CSF and 40 ng/ml IL-4. M-CSF, GM-CSF and IL-4 were obtained from R&D Systems (Mineapolis, Minn.). Cells were cultured for 6 days with half of the media being replenished every two days.
Purified proteins in PBS (30 μg/ml) were coated in triplicates in 96-well plates (50 μl/well) for 12 hr and PBMC (3×10^6 cells/ml), monocytes (1×10^6 cells/ml), macrophages (0.5×10^6 cells/ml) or DC (0.5×10^6 cells/ml) were re-suspended in macrophage serum-free medium containing penicillin and streptomycin and cultured for 24 hr in these plates at 100 μl/well. Where TLR ligands were used to stimulate these cells, they were added to the media: LPS (500 ng/ml for DC and macrophages and 10 ng/ml for PMBC and monocytes, InvivoGen), flagellin (1 μg/ml, InvivoGen), lipoteichic acid (LTA, 10 μg/ml). Cell activation was determined by measuring TNFα and IL-1β in the culture media using ELISA kits (Invitrogen).
A general note: In an ELISA, binding on a coated surface is turned into a signal by an enzyme label.

The subject of test [3] is autologous CD4 and CD8 T cells. Kind of test: Antigen-loaded DC co-culture with autologous lymphocytes, proliferation. The following applies: DC:T 1:5, 2 weeks co-culture, CellTrace Violet. Here is the method: PBMC were isolated from healthy blood donors from which monocytes were isolated to culture DC and the remaining cells (mostly lymphocytes) were stored frozen as a source of autologous lymphocytes. DC were then incubated for 24 hr with P2+G, IPA1E2 or the IPA1E2-P2+G fusion polypeptide (SEQ ID NO: 58) in round bottom 96-well plates (5×10^4 cells/well) without adding additional adjuvants. The frozen lymphocytes were revived and labelled with CellTrace Violet (2.5 μM) for 10 min at 37° C. and then added to the DC wells at 2.5×10^5 cells/well (DC:T ratio=1:5). After 2 weeks of co-culture, the proliferation of CD4+ and CD8+ T cell and CD19+ B cell was analyzed by flow cytometry.

Test [4] relates to dendritic cells (DC). As to the kind of experiment: DC maturation, surface markers by flow cytometry. As to conditions: 200 μg/ml, 48 hr. Here is the method: In some experiments, to detect surface proteins on cultured DC, cells were harvested at day 6 and re-suspended at 1×10^5/ml in macrophage serum free medium (Thermo Fisher Scientific, cat #12065074). Cells were incubated for 1 hr on ice with fluorescent antibodies specific for CD14 (PE), CD1a (PE), or isotype-matched IgG. Cells were washed and analysed by flow cytometry. The harvested DC were also resuspended in the medium at 5×10^4/ml and cultured for 48 hr with LPS (0.5 μg/ml), P2M6 (200 μg/ml) or, as a control, PBS. Cells were then incubated with fluorescently tagged antibodies specific for MHC class II, CD40, CD80, CD83, CD86, and corresponding isotype controls. Cells were analysed by flow cytometry.
NCL-P2 was previously shown to activate DC as judged by TNFα induction [Wu, S., et al., Cell Death Dis 12: 477 (2021)]. Whether P2+G effectively activates these cells into mature antigen-presenting cells (APC) for effective T cell activation has not been examined. To this end, DC were stimulated for 48 hr with P2+G (200 μg/ml) or, as a positive control, LPS (0.5 μg/ml). As a negative control, DC were cultured without specific stimulation by adding equivalent volumes of PBS. DC were cultured from monocytes and were typically CD14^lo/− CD1a^hi [Cao, W., et al., Blood 107: 2777-2785 (2006)]. Cells were examined for surface expression of MHC class II, CD40, CD80, CD83 and CD86.

The subject of test [5] is PBMC. As to the kind of experiment: Peptide binding to and penetration of PBMC, flow cytometry. The following applies: PBMC, peptide 200 μg/ml, 1 hr at 4° C. The essentials: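 PBMC (3×10^6/ml, serum-free macrophage medium) incubated 1 h with biotinylated-detected peptides at 200 μg/ml, at 37 °C or 4 °C. Streptavidin-AF488 flow cytometry with viability dye, with or without permeabilization to separate surface binding from internalization; monocytes, T and B cells gated separately.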
A general note: A flow cytometer gives signals particle by particle.

Test [6] deals with dendritic cells (DC). Kind of test: Dendritic cell penetration, confocal microscopy. Here is the method: DC were harvested and cultured overnight on glass coverslips. The cells were first incubated for 1, 5, 15, 30 or 60 min with P2M6 (200 μg/ml) at 4° C. and then fixed in 4% (w/v) paraformaldehyde (PFA) for 20 min. Cells were permeabilized for 30 min in 0.1% (w/v) saponin and then incubated for 1 hr with streptavidin-AF488 (50 μg/ml). Cells were then mounted for imaging analysis. Alternatively, P2M6 was pre-incubated for 1 hr on ice with streptavidin-AF488 at 50 μg/ml and the peptide-streptavidin complexes were at 1/10 dilution incubated with DC for 1, 5, 15, 30 or 60 min at 4° C. and the cells were, after washing, directly mounted without fixation or permeabilization.
In another experiment set up, DC (2×10^5/ml) were incubated for 1 hr at 4° C. with P2M6 at different concentrations (10, 25, 50, 100, or 200 μg/ml). Cells were fixed and permeabilized to incubate for 1 hr with streptavidin-AF488 (50 μg/ml). Cells were washed and mounted for imaging analysis. Alternatively, Different concentrations of P2M6 ([…]) were pre-incubated for 1 hr on ice with streptavidin-AF488 (500 μg/ml). The preformed complexes were at 1/10 dilutions incubated with DC for 1 hr at 4° C. The cells were, after washing, directly mounted without fixation or permeabilization.
All cells were mounted using the VectaShield mounting medium containing DAPI (Vector Laboratories). Cells were analyzed using the FluoView FV3000 confocal microscope equipped with a 100× oil objective (aperture 1.45) and Cool/SNAP HQ2 image acquisition camera (Olympus). Images were captured with the FV-ASW 1.6b software and analyzed using the Imaris software (Bitplane AG).

Entries after “also recorded” stand apart in the source; their conditions may differ. Bounds are passed on as bounds.

Take “GGFGGRGGGRGGRGGFGGRGGRGGFGGRGGFRGGRGG (NCL-P2+G)”: the “carrying ovalbumin into DC cytoplasm” value in the test with dendritic cells (DC) [1] was “carried ovalbumin into DC cytoplasm”. Further, in the test with PBMC [2], the “adjuvant (alarmin) activity compared with NCL-P2” value is given as “significantly higher alarmin activity” and the “increase in adjuvant (alarmin) activity compared with NCL-P2” value is on record as 3 fold. The “T cell proliferation / activation induced by peptide-loaded DC” value in test [3] is on record as “might not induce significant T cell activation to itself”. Moreover, the “DC maturation (MHC class II, CD40, CD80, CD83, CD86)” value with dendritic cells (DC) [4] is listed as “effectively activated DC maturation”. Also, the “CPP activity compared with NCL-P2” value with PBMC [5] is given as “slightly higher CPP activity”. Further, the “CPP activity compared with NCL-P2” value in the test on PBMC [5] (listed as P2+G) is “slightly increased their CPP activities”. For the same sequence, the “carrying cargo protein streptavidin into DC cytoplasm” value with dendritic cells (DC) [6] is recorded as “can carry cargo proteins across the cell membrane into the cytoplasm; also recorded: carry a cargo protein streptavidin into the DC cytoplasm”. For the same sequence, the “time of incubation within which DC were penetrated” value in the test with dendritic cells (DC) [6] (200 μg/ml, 4° C.) is given as at most 1 min. The “DC penetration over time” value in the test on dendritic cells (DC) [6] (1, 5, 15, 30 and 60 min, 4° C.) is “increased progressively from 5 to 60 min”. Besides, in the test with dendritic cells (DC) [6] (1 hr at 4° C.), the “DC penetration at 10 μg/ml of P2+G” value was “not detectable; also recorded: no detectable DC penetration” and the “DC penetration at 25 μg/ml of P2+G” value is reported as “low level of DC penetration”. Besides, the “time to saturation of DC penetration” value in the test on dendritic cells (DC) [6] (P2+G 200 μg/ml, on ice) stood at 30 min. In the test with dendritic cells (DC) [6] (confocal microscopy), the “intracellular localisation in DC” value is “penetrated into the nucleoli faster than it penetrated into the cytoplasm”. Besides, the “change of intracellular pool in DC with increasing P2+G concentration” value in the test on dendritic cells (DC) [6] (free peptide 25 to 200 μg/ml, streptavidin-bound 10 to 100 μg/ml) is “increased following increasing concentrations”.
